# In US11596615B2, “Compositions and methods for treatment of insulin resistance” (Temple University—Of The Commonwealth System Of Higher …, priority 2016, dated 2023):
# “Also recorded” adds a separate entry of the source. Counter-ions that a name gives are not always drawn. Like-named read-outs stand apart in the source and are kept apart here.
# Key:
# [1] = Body weight of diet-induced (HFD) obese mice over two weeks; assay type: in vivo; settings: 10 mg/kg/day
# Procedure: The body weights of diet-induced (HFD) mice with and without (S)-2-amino-6-((3-aminopropyl)amino)hexanoic acid dihydrochloride (10 mg/kg/day) were measured over 14 days.
# In contrast, poglitazone is known to cause water retention and weight gain.
# [2] = Solubility in water, DMSO and PBS solubility assay; assay type: physicochemical
# Procedure: The title compound was determined to be soluble in water or DMSO at a concentration of at least 10 mM.
# db/db mice = assay: Glucose tolerance test in leptin receptor knock-out (db/db) mice; assay type: in vivo
# Procedure: Leptin receptor knock-out (db/db) mice have severe, rapid, spontaneous and early-onset obesity and insulin resistance that is first recognizable at 4 weeks of age. These animals (5 for each group) were used to determine the effect of (S)-2-amino-6-((3-aminopropyl)amino)hexanoic acid dihydrochloride on impaired glucose tolerance at pre-diabetes level. The groups consisted of (i) db/db mice administered 50 mg/kg b.i.d. p.o. (S)-2-amino-6-((3-aminopropyl)amino)hexanoic acid dihydrochloride; (ii) db/db vehicle control-treated mice; and (iii) heterozygous littermate control mice. The treatment period was for 7 days. Glucose tolerance tests were performed as described above.
# To determine the effect of (S)-2-amino-6-((3-aminopropyl)amino)hexanoic acid dihydrochloride on impaired glucose tolerance after diabetes is established, 6 week old db/db mice were treated with the drug (50 mg/kg b.i.d. p.o.) for 14 days. The positive control group was treated with metformin at the same dose. […] The results establish that the drug can be used to treat both pre-diabetes, and diabetes wherein the diabetic phenotype has been established.
# To assess whether (S)-2-amino-6-((3-aminopropyl)amino)hexanoic acid dihydrochloride delays progression to diabetes or only masks diabetes during treatment period, (i) db/db mice (ii) db/db vehicle control-treated mice; and (iii) heterozygous littermate control mice were treated with and without (S)-2-amino-6-((3-aminopropyl)amino)hexanoic acid dihydrochloride or metformin (50 mg/kg b.i.d. p.o.) for 14 days. The 14 day treatment period was followed by another 14 day period (“wash out period”) in which no treatment was given.
# 3T3-L1 adipocytes = assay: 13C6-glucose uptake in 3T3-L1 adipocytes exposed to 4HNE/H2O2 (Example 7); assay type: cell-based, mouse; settings: 0.1, 1, 10 and 100 μM compound for 2 h, then 4HNE/H2O2 100 μM each 1 h; FIG. 5; dihydrochloride
# Procedure: 3T3-L1 Mouse Embryonic Fibroblasts, ATCC® CL-173™ were differentiated to adipocytes using chemically-induced differentiation according to the ATCC guidelines. Differentiated 3T3-L1 Adipocyte 4e^6 cell were incubated overnight in glucose free media (RPMI ref. #11879 Gibco) containing 1% dialyzed fetal bovine serum (ref. #26400 Gibco) at 37° C. Cells were washed with and incubated for 1 h with glucose free media before compound exposure. Cells were incubated with and without increasing concentration (0.1, 1, 10 and 100 μM) of (S)-2-amino-6-((3-aminopropyl)amino)hexanoic acid dihydrochloride (title compound) for 2 h at 37° C., followed by 3 wash steps in glucose free phosphate buffer. […]
# Cells were washed with PBS, followed by addition of glucose free DMEM medium containing 20 mM of ^13C6 glucose, 10 mM, 2-fluorodeoxyglucose (2-FDG) and insulin 10 pM (Sigma I5500) incubated for 1 hour at 37° C. 2-FDG is an inhibitor of glucose metabolism, thus preventing glucose breakdown and allowing its accumulation to further be measure and quantified. […]
# The detection of the ^13C6 glucose, was carried out using a Waters Xevo™ triple quadrupole tandem mass spectrometer (Waters Corp., Manchester, UK). […] Chromatographic and mass spectrum data were collected and analyzed with Waters MassLynx v4.1 software. […]
compound,measurement,setting,value
"NCCCNCCCC[C@H](N)C(=O)O [APL, (S)-2-amino-6-((3-aminopropyl)amino)hexanoic acid dihydrochloride]",body weight,"[1]; HFD obese mice, two weeks, FIG. 9",no effect on body weight
same,toxicity (from body weight),"[1]; mouse, in vivo",lack of significant toxicity
same,solubility,"[2]; DMSO, organic solvent or mixture, read-out: solubility in DMSO",≥ 10 mM
same,solubility,"[2]; phosphate buffered saline (PBS) without Ca or Mg, aqueous buffer, PBS pH 7.4 without Ca or Mg, 200 μM = maximum concentration tested, read-out: solubility in PBS",> 0.2 mM
same,solubility,"[2]; water, read-out: solubility in water",≥ 10 mM
same,impaired glucose tolerance after diabetes is established,"db/db mice; 6 week old db/db mice, 50 mg/kg b.i.d. p.o., 14 days, vs metformin at the same dose, FIG. 11",better in reducing impaired glucose tolerance than metformin
same,impaired glucose tolerance after wash out period,"db/db mice; db/db mice, 50 mg/kg b.i.d. p.o. 14 days, then 14 days no treatment, FIG. 12",still effective in reducing impaired glucose tolerance even after 14 days following treatment removal
same,"impaired glucose tolerance, pre-diabetic stage","db/db mice; pre-diabetic db/db mice, 50 mg/kg b.i.d. p.o., 7 days, FIG. 10",normalizes impaired glucose tolerance
same,glucose uptake impairment induced by 4-HNE and H2O2,3T3-L1 adipocytes,"able to prevent the glucose uptake impairment induced by 4-HNE and H2O2, in a dose-dependent fashion; also recorded: prevented glucose uptake-impairing effect of 4-HNE and H2O2, in a dose-dependent fashion"
